In this assay the target is RAGE tail (ctRAGE) binding to mDial (Homo sapiens (Human), UniProt Q15109). The assay is described as follows: Primary screen: binding of GFP RAGE tail to mDial at one concentration (10 uM). The settings on record: 10 μM compound. How it is done: Primary screening was a two-step process in which compounds were first tested in a high throughput assay at one concentration (10 uM). Compounds that reduced binding of RAGE tail (ctRAGE) by at least 50% were then selected and subjected to 4-point dose response (10 uM, 1 uM, 0.1 uM and 0.01 uM) (FIGS. 1, 4, and 5).
Step 1. Add 50 μl anti-mDial (1:160 dilution in 0.1M NaHCO3 pH 9.6)/well. Incubate overnight at 4° C.
Step 2. Use the plate washer to aspirate anti-mDial and wash plates 4× with PBS 100 μl per well per wash.
Step 3. Add 180 μl 3% BSA in 1×PBS. Incubate for 1.5 hrs at room temperature
Step 4. Use the plate washer to aspirate the blocking solution and wash 5× with PBS 300 μl per well.
Step 5. Add 50 μl of mDial containing lysate (85 μg) and incubate at RT for 3 hours.
Step 6. Aspirate the lysate and wash the plate 5× (100 μl) on the plate washer.
Step 7. Add 25 μl PBS to the wells.
Step 8. Add 0.5 μL compound per well.
Step 9. Add 24.5 μL GFP RAGE tail (125 nM) into each well for 2 hrs at room temperature.
Step 10. Aspirate and wash 5× with PBS (100 μL) on the plate washer.
Step 11. Add 100 ul PBS in each well.
Step 12. Detection: Read on fluorescence plate reader excitation 435 nm and 485 nm emission
Compounds that blocked the binding of RAGE tail to mDial by 50% or more were subjected to 4 point dose response: 10 μM, 1 μM, 0.1 μM and 0.01 μM.

Structures are written as SMILES.

Chain of RAGE tail (ctRAGE) binding to mDial (Q15109 364-404): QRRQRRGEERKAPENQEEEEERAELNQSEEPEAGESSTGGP

Take `O=C(O)c1ccccc1OCC(O)Cn1cnc2ccccc21` (centres unmarked) [CD-19]: the inhibition (commonly the percentage by which the read-out fell short of the control) at 10 µM stood at 24%.

In turn, `CC1=NN(c2nc3ccccc3s2)C(=O)C1CCC(C)C` (centres unmarked) [CD-20] had an inhibition at 10 µM of 48%. On to `COc1ccccc1-c1cc(C(F)(F)F)nc(NC2CCCCC2)n1` [CD-21], for which at 10 µM the inhibition was 18%. `OC(COc1ccccc1)Cn1cnc2ccccc21` (centres unmarked) [CD-28] gave an inhibition at 10 µM of 37%. Molecule `COc1ccccc1-c1cc(C(F)(F)F)nc(N2CCN(c3ccccc3OC)CC2)n1` [CD-42] registered an inhibition at 10 µM of 42%.
